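A five-concentration, 48-hour dose response in 96-well plates underlies each endpoint, interpolated linearly between surrounding concentrations. The concentration for full growth arrest is given as TGI.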
Assays:
Experiment in all cases: NCI-60 cell line screen, 48 h
BT-549 breast = test system: BT-549 breast
HCT-15 colon = test system: HCT-15 colon
CAKI-1 renal = test system: CAKI-1 renal
RPMI-8226 leukemia = test system: RPMI-8226 leukemia
SNB-19 CNS = test system: SNB-19 CNS
786-0 renal = test system: 786-0 renal
EKVX NSCLC = test system: EKVX NSCLC
RXF 393 renal = test system: RXF 393 renal
COLO 205 colon = test system: COLO 205 colon
PC-3 prostate = test system: PC-3 prostate

CN(C)c1ccc(-c2c(C#N)c(S)n(NS(=O)(=O)c3ccccc3)c(=O)c2C#N)cc1
TGI (BT-549 breast): 61.7 µM | TGI (HCT-15 colon): 57.7 µM | TGI (CAKI-1 renal): 76.1 µM | TGI (RPMI-8226 leukemia): 91 µM | TGI (SNB-19 CNS): > 100 µM | TGI (786-0 renal): 40.6 µM | TGI (EKVX NSCLC): > 100 µM | TGI (RXF 393 renal): > 100 µM | TGI (COLO 205 colon): > 100 µM | TGI (PC-3 prostate): > 100 µM

Cc1cn2c(/C=C3/C(=O)Nc4cccc(Cl)c43)c(Cl)nc2s1
TGI (BT-549 breast): > 100 µM | TGI (HCT-15 colon): > 100 µM | TGI (CAKI-1 renal): > 100 µM | TGI (RPMI-8226 leukemia): > 100 µM | TGI (SNB-19 CNS): > 100 µM | TGI (786-0 renal): > 100 µM | TGI (EKVX NSCLC): > 100 µM | TGI (RXF 393 renal): 87 µM | TGI (PC-3 prostate): > 100 µM

CC(=O)OC[C@]1(C(=O)C(O)c2ccoc2)[C@H](C)CC[C@@]23COC(=O)C2=CCC[C@@H]31 (some centres not stated)
TGI (BT-549 breast): > 10 µM | TGI (HCT-15 colon): > 10 µM | TGI (CAKI-1 renal): > 10 µM | TGI (RPMI-8226 leukemia): > 10 µM | TGI (SNB-19 CNS): > 10 µM | TGI (786-0 renal): > 10 µM | TGI (EKVX NSCLC): > 10 µM | TGI (RXF 393 renal): > 10 µM | TGI (COLO 205 colon): > 10 µM | TGI (PC-3 prostate): > 10 µM

CCC[C@H]1C(=O)N=C(N)N1C(=O)OCc1ccccc1
TGI (BT-549 breast): > 100 µM | TGI (HCT-15 colon): > 100 µM | TGI (CAKI-1 renal): > 100 µM | TGI (RPMI-8226 leukemia): > 100 µM | TGI (SNB-19 CNS): > 100 µM | TGI (786-0 renal): > 100 µM | TGI (EKVX NSCLC): > 100 µM | TGI (RXF 393 renal): > 100 µM | TGI (COLO 205 colon): > 100 µM | TGI (PC-3 prostate): > 100 µM

O=C(CN1CCCCC1)CC(O)(C(F)(F)F)C(F)(F)F
TGI (BT-549 breast): > 100 µM | TGI (HCT-15 colon): > 100 µM | TGI (CAKI-1 renal): > 100 µM | TGI (RPMI-8226 leukemia): > 100 µM | TGI (SNB-19 CNS): > 100 µM | TGI (786-0 renal): > 100 µM | TGI (EKVX NSCLC): > 100 µM | TGI (RXF 393 renal): > 100 µM | TGI (COLO 205 colon): > 100 µM | TGI (PC-3 prostate): > 100 µM

C=C(C)CCC(=O)[C@](C)(O)[C@H]1[C@H](O)C[C@@]2(C)[C@@H]3CCc4c(cc(OC5OC(CO)C(O)C(O)C5O)c(O)c4C)C3(C)C(=O)C[C@]12C (some centres not stated)
TGI (BT-549 breast): > 100 µM | TGI (HCT-15 colon): > 100 µM | TGI (CAKI-1 renal): > 100 µM | TGI (SNB-19 CNS): > 100 µM | TGI (786-0 renal): > 100 µM | TGI (EKVX NSCLC): > 100 µM | TGI (RXF 393 renal): > 100 µM | TGI (COLO 205 colon): > 100 µM | TGI (PC-3 prostate): > 100 µM

O=c1cc(/C=C/c2ccc(O)c(O)c2)oc(/C=C/c2ccc(O)c(O)c2)c1
TGI (BT-549 breast): 15.2 µM | TGI (HCT-15 colon): 27.6 µM | TGI (CAKI-1 renal): 11.4 µM | TGI (RPMI-8226 leukemia): > 27.4 µM | TGI (SNB-19 CNS): 18.2 µM | TGI (786-0 renal): 17.7 µM | TGI (EKVX NSCLC): 18.1 µM | TGI (RXF 393 renal): 9.12 µM | TGI (COLO 205 colon): 21.6 µM | TGI (PC-3 prostate): 17.6 µM

O=C1c2ccccc2CN1c1ccc(O)cc1
TGI (BT-549 breast): > 100 µM | TGI (HCT-15 colon): > 100 µM | TGI (CAKI-1 renal): > 100 µM | TGI (RPMI-8226 leukemia): > 100 µM | TGI (SNB-19 CNS): > 100 µM | TGI (786-0 renal): > 100 µM | TGI (EKVX NSCLC): > 100 µM | TGI (RXF 393 renal): > 100 µM | TGI (COLO 205 colon): > 100 µM | TGI (PC-3 prostate): > 100 µM

CCSC1=CC(=O)c2nc3ccccc3c3ccnc1c23
TGI (BT-549 breast): 26.3 µM | TGI (HCT-15 colon): 7.37 µM | TGI (CAKI-1 renal): 9.12 µM | TGI (RPMI-8226 leukemia): > 31.6 µM | TGI (SNB-19 CNS): > 87.1 µM | TGI (786-0 renal): 11.4 µM | TGI (EKVX NSCLC): 7.59 µM | TGI (RXF 393 renal): 18.2 µM | TGI (COLO 205 colon): > 32.8 µM | TGI (PC-3 prostate): > 23.3 µM

CC(C)=CCc1c2c(c3occ(-c4ccc(O)c(O)c4)c(=O)c3c1O)C=CC(C)(C)O2
TGI (BT-549 breast): 13.8 µM | TGI (HCT-15 colon): 5.35 µM | TGI (CAKI-1 renal): 3.02 µM | TGI (RPMI-8226 leukemia): 4.04 µM | TGI (SNB-19 CNS): 5.02 µM | TGI (786-0 renal): 2.88 µM | TGI (EKVX NSCLC): 17.3 µM | TGI (RXF 393 renal): 4.14 µM | TGI (COLO 205 colon): 4.04 µM | TGI (PC-3 prostate): 3.45 µM

CC(C)(C)N=c1n(C(C)(C)C)oc(=O)n1C(C)(C)C
TGI (BT-549 breast): > 100 µM | TGI (HCT-15 colon): > 100 µM | TGI (CAKI-1 renal): > 100 µM | TGI (SNB-19 CNS): > 100 µM | TGI (786-0 renal): > 100 µM | TGI (EKVX NSCLC): > 100 µM | TGI (RXF 393 renal): > 100 µM | TGI (COLO 205 colon): > 100 µM | TGI (PC-3 prostate): > 100 µM

Source: PubChem BioAssay (NCI)
